According to US7148210B2, “Method of treating bone metastasis” (Trustees of Dartmouth College, priority 2002, dated 2006):
Like-named read-outs stand apart in the source and are kept apart here. Marks after values point to notes of the source that are not given here.

How the values were obtained:
[1] = ATP i.v. infusion dose escalation to maximally tolerated dose (present disclosure); format: in vivo, human; details: duration 8 hours
Source text: (§1) This regime was maintained until the maximally tolerated dose (MTD) was reached.
(§2) Patients were consenting adult patients with histologically/cytologically confirmed advanced hormone-refractory prostate cancer not curable by conventional therapies that fulfilled the standard phase 1 liver, renal and Karnofsky performance eligibility requirements. The patients also had to meet one of the two following requirements. A positive bone scan and/or imaging study for bone metastasis with accompanying bone pain had to be present with rising PSA values, identified in three consecutive PSA observations, following definitive surgery and/or radiation therapy and anti-androgen hormonal therapy. PSA levels (>10 ng/ml) and a positive bone scan and bone pain at time of initial diagnosis.
Average patient age was between 50 and 85 years of age. Patients were excluded if they met the standard phase 1 respiratory and cardiac exclusion criteria.
ATP infusion therapy was as described above.

HRPA cells = details: preclinical observations, Janssens and Boeynaems (2001); Fang et al. (1992); cited from earlier work
[2] = Monitoring of patients for adverse effects / tolerability; format: in vivo, human
Source text: as §1

[3] = system: hormone-refractory prostate adenocarcinoma (HRPA); experiment: Blood PSA response in hormone-refractory prostate cancer patients with bone metastasis; format: in vivo, human
Procedure: Treatment of hormone-refractory prostate adenocarcinoma (HRPA) patients presents a complex combination of tumor and pain management. […] HRPA outcomes and PSA measurements were determined pre- and post-treatment within 25–45 days after Sm-153 administration.
[formula] PSA decreases of greater than 50% from baseline are associated with improved survivals in prostate cancer patients [Zyskowski, et al. (2001) Australas Radiol. 45:39; Kelly, et al. (1993) J. Clin. Oncol. 11:607).
The change in PSA was expressed as a ratio rather than a strict difference due to assumed relative changes. Furthermore, assumed multiplicative error provided that the variation of PSA levels increased with an increase in PSA levels. The combination of these two assumptions provided that the PSA responses be compared on the log scale. Furthermore, it is known that the log scale stabilizes the variance (Rosner, In: Fundamentals of Bio-statistics, 5th edition, Pacific Grove: Duxbury) and it has been observed that the variation in PSA among patients with prostate cancer is higher than in healthy (disease-free) controls.
This regime was maintained until the maximally tolerated dose (MTD) was reached. […]

[4] = cited from earlier work
bone metastases = experiment: Clinical outcome in patients (bone pain, energy, bone scan); format: in vivo, human; details: Patient 1
Source text: as §2

## Nc1ncnc2c1ncn2[C@@H]1O[C@H](COP(=O)(O)OP(=O)(O)OP(=O)(O)O)[C@@H](O)[C@H]1O [ATP, Adenosine triphosphate]
[1]; Study 2, present disclosure
  MTD: 75 µg/kg/min
[1]; Study 3, present disclosure
  MTD: 100 µg/kg/min
HRPA cells
  effect on HRPA cells in vitro: inhibits
[2]; 8-hour infusion once weekly at 50 up to 100 μg/kg/minute
  tolerability: well tolerated by most patients
[2]; Patient 1, 33% at start of trial, transfusion given at nadir
  hematocrit NADIR: 25%
[2]; Patient 1, eight weekly i.v. infusions
  side effects of ATP infusion: minor side effects
[3]; Patient 1, eight weekly i.v. ATP infusions, no Sm-153, PSA at start 2732 ng/ml
  rate of PSA level increase during ATP treatments: stabilized
[3]; three advanced prostate cancer patients, i.v. infused ATP
  PSA levels during ATP treatment: stabilized
[4]; Study 1, Gaba (1990), incremental i.v. dose levels, each infusion 20 min.
  MTD: 125* μg/kg/min
[4]; Study 4, Haskell et al. (1998), duration 96 hours
  MTD: 50 µg/kg/min
[4]; Study 5, Agteresch et al. (2000), infused over 30 hours, start 20 μg/kg/min, increments of 10 every 30 minutes
  MTD: 65 to 75 µg/kg/min
[4]; Study 6, Haskell et al. (1996), duration 96 hours
  MTD: 75 µg/kg/min
Bone metastases; eighth week, 100 μg/kg/min × 8 hours
  energy levels, exercise and activity: improved energy levels at home and improved exercise and activity
Bone metastases; end of the eight weeks of ATP therapy
  bone pain: continued to have bone pain
